According to patent US9120749B2, “Quinoline derivatives and MELK inhibitors containing the same” (ONCOTHERAPY SCIENCE, INC., priority 2010, dated 2015):
Counter-ions that a name gives are not always drawn. Like-named read-outs stand apart in the source and are kept apart here.

How the values were obtained:
MELK = MELK (Homo sapiens, UniProt Q14680); assay: Kinase assay: MELK activity, phosphorylation of FITC-labeled histone H3 peptide measured by IMAP fluorescence polarization; format: biochemical; conditions: read-out: IC50 (μM) (kinase assay)
Sequence of MELK (Q14680 whole entry, looked up): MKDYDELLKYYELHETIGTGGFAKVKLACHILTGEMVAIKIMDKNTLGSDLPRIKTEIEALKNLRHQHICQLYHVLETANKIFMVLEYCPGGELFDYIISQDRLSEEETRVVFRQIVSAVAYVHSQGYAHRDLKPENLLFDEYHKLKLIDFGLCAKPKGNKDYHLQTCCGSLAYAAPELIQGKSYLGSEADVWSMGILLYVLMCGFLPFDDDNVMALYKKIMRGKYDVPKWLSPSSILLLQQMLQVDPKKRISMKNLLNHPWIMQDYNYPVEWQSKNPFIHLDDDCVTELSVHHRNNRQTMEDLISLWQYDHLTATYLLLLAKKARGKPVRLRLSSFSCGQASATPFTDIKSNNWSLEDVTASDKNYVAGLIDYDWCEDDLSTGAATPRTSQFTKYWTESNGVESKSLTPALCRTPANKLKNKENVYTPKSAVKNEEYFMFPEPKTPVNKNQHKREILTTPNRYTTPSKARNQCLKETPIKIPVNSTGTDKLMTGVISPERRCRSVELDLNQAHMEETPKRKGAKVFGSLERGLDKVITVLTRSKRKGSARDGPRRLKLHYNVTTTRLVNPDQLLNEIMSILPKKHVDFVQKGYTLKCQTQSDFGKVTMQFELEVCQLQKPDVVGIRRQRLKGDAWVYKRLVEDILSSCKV
Outline: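 Substrate is FITC-labeled histone H3 peptide. Compounds come from a 12.5 mM DMSO stock, diluted so assay DMSO is 1%. The stop step adds threefold-volume progressive binding solution, followed by 0.5 h at room temperature and an FP read.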

T47D cells = assay: Cell-based assay: anti-proliferative activity, Cell Counting Kit-8, 72 hours (T47D)
Outline: (§1)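 IC50 values come from CCK-8 growth measurements taken 72 hours post-treatment of plated cells with test compounds. Expression of MELK across the panel was assessed through immunoblot of unfractionated lysates.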

A549 cells = assay: Cell-based assay: anti-proliferative activity, Cell Counting Kit-8, 72 hours (A549); conditions: 72 hours
Outline: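 A549 cells were seeded in 96-well plates and exposed to candidate inhibitors for 72 hours. Cell growth was then measured with Cell Counting Kit-8, and IC50 values were calculated from the resulting growth data.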

HT-1197 cells = assay: Cell-based assay: anti-proliferative activity, Cell Counting Kit-8, 72 hours (HT-1197, negative control without MELK expression); conditions: 72 hours
Outline: as §1

22Rv1 = assay: Cell-based assay: anti-proliferative activity, Cell Counting Kit-8, 72 hours (22Rv1); conditions: Homo sapiens; 22Rv1 cells
Protocol: Active candidate inhibitors against MELK were evaluated for their target-specific cytotoxicity using T47D, A549, BT-549, and HT-1197 cells was used for negative control. 100 micro-L of cell suspension was seeded onto 96-well microtiter plate (ViewPlate-96FTC, PerkinElmer). The initial cell concentration of T47D, A549, BT-549, and HT-1197 were 3,000 cells/well, 2,000 cells/well and 2,500 cells/well, respectively. Cellular growth was determined using Cell Counting Kit-8 (DOJINDO) at 72 hours after the exposure of the candidate inhibitors. […] Accurate IC50 values were calculated as described previously.

DU4475 = assay: Cell-based assay: anti-proliferative activity, Cell Counting Kit-8, 72 hours (DU4475)
22Rv1 cells = assay: Cell-based assay: anti-proliferative activity, Cell Counting Kit-8, 72 hours (22Rv1); conditions: Homo sapiens
DU4475 cells = assay: Cell-based assay: anti-proliferative activity, Cell Counting Kit-8, 72 hours (DU4475); conditions: Homo sapiens, DU-4475
[1] = HT1197 cells (negative control, no MELK expression)
[2] = 50 micro-M ATP, FITC-labeled histone H3 peptide substrate, IMAP fluorescence polarization
[3] = Homo sapiens, HT1197, 72 h, HT1197 cells (negative control, no MELK expression)
[4] = Homo sapiens, DU-4475, DU4475 cells
[5] = HT1197 cells (negative control, no MELK expression), hydrochloride
[6] = MELK kinase assay, IMAP fluorescence polarization, 50 micro-M ATP
[7] = Homo sapiens, HT1197, 72 h, HT1197 cells (negative control)

| SMILES | IC50 (22Rv1) [µM] | IC50 (T47D cells; Homo sapiens, T47D, 72 h) [µM] | IC50 (A549 cells; Homo sapiens, A549, 72 h) [µM] | IC50 (MELK; [6]) [µM] | IC50 (HT-1197 cells; [7]) [µM] | IC50 (22Rv1 cells) [µM] | IC50 (DU4475 cells) [µM] | other results |
| --- | --- | --- | --- | --- | --- | --- | --- | --- |
| CC(=O)c1cnc2ccc(-c3cc(F)c(O)c(Cl)c3)cc2c1Nc1ccc(N2CCN(C)CC2)nc1 [Example 488, 1-(6-(3-chloro-5-fluoro-4-hydroxyphenyl)-4-(6-(4-methylpiperazin-1-yl)pyridin-3-ylamino)quinolin-3-yl)ethanone] | 0.38 | – | – | – | – | – | – | IC50 (MELK): 0.0041 µM; IC50 (T47D cells; 72 hours): 0.084 µM; IC50 (A549 cells): 0.2 µM; IC50 (HT-1197 cells; [1]): 2.1 µM; IC50 (DU4475; DU4475 cells): 0.14 µM |
| O=C(c1cnc2ccc(-c3cc(F)c(O)c(Cl)c3)cc2c1Nc1ccc(N2CCNCC2)nc1)C1CC1 [Example 425, (6-(3-chloro-5-fluoro-4-hydroxyphenyl)-4-(6-(piperazin-1-yl)pyridin-3-ylamino)quinolin-3-yl)(cyclopropyl)methanone] | 0.082 | 0.042 | 0.16 | – | – | – | – | IC50 (MELK; [2]): 0.0027 µM; IC50 (HT-1197 cells; [3]): 1.4 µM; IC50 (DU4475; [4]): 0.044 µM |
| NCc1ccc(Nc2c(C(=O)C3CC3)cnc3ccc(-c4cc(Cl)c(O)c(Cl)c4)cc23)cc1 [Example 508, (4-(4-(aminomethyl)phenylamino)-6-(3,5-dichloro-4-hydroxyphenyl)quinolin-3-yl)(cyclopropyl)methanone hydrochloride] | 0.099 | – | – | – | – | – | – | IC50 (MELK; hydrochloride): 0.0017 µM; IC50 (T47D cells; 72 hours, hydrochloride): 0.078 µM; IC50 (A549 cells; hydrochloride): 0.067 µM; IC50 (HT-1197 cells; [5]): 0.49 µM; IC50 (DU4475; DU4475 cells, hydrochloride): 0.02 µM |
| O=C(c1cnc2ccc(-c3cc(F)c(O)c(Cl)c3)cc2c1Nc1ccc(CN2CCCC2)cc1)C1CC1 [Example 396, {6-(3-chloro-5-fluoro-4-hydroxyphenyl)-4-[4-(pyrrolidin-1-ylmethyl)phenylamino]quinolin-3-yl}(cyclopropyl)methanone] | 0.38 | 0.21 | 0.087 | – | – | – | – | IC50 (MELK; [2]): 0.0088 µM; IC50 (HT-1197 cells; [3]): 1.6 µM; IC50 (DU4475; [4]): 0.084 µM |
| CN(C)Cc1ccc(Nc2c(S(C)(=O)=O)cnc3ccc(-c4cc(Cl)c(O)c(Cl)c4)cc23)cc1 [Example 401, 2,6-dichloro-4-(4-(4-((dimethylamino)methyl)phenylamino)-3-(methylsulfonyl)quinolin-6-yl)phenol hydrochloride] | 0.52 | – | – | – | – | – | – | IC50 (MELK; 50 micro-M ATP, FITC-labeled histone H3 peptide substrate, IMAP fluorescence polarization, hydrochloride): 0.0055 µM; IC50 (T47D cells; 72 hours, hydrochloride): 0.19 µM; IC50 (A549 cells; hydrochloride): 0.44 µM; IC50 (HT-1197 cells; [3]): 2.2 µM; IC50 (DU4475; DU4475 cells, hydrochloride): 0.11 µM |
| NCc1ccc(Nc2c(C(=O)C3CC3)cnc3ccc(-c4cc(F)c(O)c(Cl)c4)cc23)cc1 [Example 505, (4-(4-(aminomethyl)phenylamino)-6-(3-chloro-5-fluoro-4-hydroxyphenyl)quinolin-3-yl)(cyclopropyl)methanone hydrochloride] | 0.088 | – | – | – | – | – | – | IC50 (MELK; hydrochloride): 0.0027 µM; IC50 (T47D cells; 72 hours, hydrochloride): 0.063 µM; IC50 (A549 cells; hydrochloride): 0.067 µM; IC50 (HT-1197 cells; [5]): 0.4 µM; IC50 (DU4475; DU4475 cells, hydrochloride): 0.026 µM |
| CN(C)C[C@H]1CC[C@H](Nc2c(S(C)(=O)=O)cnc3ccc(-c4cc(Cl)c(O)c(Cl)c4)cc23)CC1 [Example 421] | 0.64 | – | – | – | – | – | – | IC50 (MELK; [2]): 0.0017 µM; IC50 (T47D cells; 72 hours): 0.47 µM; IC50 (A549 cells): 0.68 µM; IC50 (HT-1197 cells; [1]): 2.1 µM; IC50 (DU4475; DU4475 cells): 0.086 µM |
| CCC(=O)c1cnc2ccc(-c3cc(Cl)c(O)c(Cl)c3)cc2c1Nc1ccc(N2CCC[C@H](N)C2)nc1 [Example 934, (S)-1-(4-(6-(3-aminopiperidin-1-yl)pyridin-3-ylamino)-6-(3,5-dichloro-4-hydroxyphenyl)quinolin-3-yl)propan-1-one] | – | 0.014 | 0.034 | 0.0012 | 0.6 | 0.02 | 0.016 | – |
| CC(=O)c1cnc2ccc(-c3cc(F)c(O)c(Cl)c3)cc2c1N[C@H]1CC[C@H](NC(=O)C2CCCN2C)CC1 (stereo partly drawn) [Example 874, N-(1R,4R)-4-((3-acetyl-6-(3-chloro-5-fluoro-4-hydroxyphenyl)quinolin-4-yl)amino)cyclohexyl)-1-methylpyrrolidine-2-carboxamide hydrochloride] | – | 0.04 | 0.14 | 0.016 | 1 | 0.18 | 0.12 | – |
| CC(N)C(=O)N[C@H]1CC[C@H](Nc2c(C(=O)C(C)(C)C)cnc3ccc(-c4cc(F)c(O)c(Cl)c4)cc23)CC1 (stereo partly drawn) [Example 932, 2-amino-N-(1R,4R)-4-((6-(3-chloro-5-fluoro-4-hydroxyphenyl)-3-pivaloyl-quinolin-4-yl)amino)cyclohexyl) propanamide hydrochloride] | – | 0.71 | 4.7 | 0.047 | 7.6 | 1.6 | 1 | – |
| COc1cc(-c2ccc3ncc(C(=O)C4CC4)c(N[C@H]4CC[C@H](CN)CC4)c3c2)cc(Cl)c1O [Example 494, (4-(4-(aminomethyl)cyclohexylamino)-6-(3-chloro-4-hydroxy-5-methoxyphenyl)quinolin-3-yl)(cyclopropyl)methanone hydrochloride] | 0.13 | – | – | – | – | – | – | IC50 (MELK; hydrochloride): 0.0016 µM; IC50 (T47D cells; 72 hours, hydrochloride): 0.081 µM; IC50 (A549 cells; hydrochloride): 0.085 µM; IC50 (HT-1197 cells; [5]): 0.48 µM; IC50 (DU4475; DU4475 cells, hydrochloride): 0.055 µM |
| CC(=O)c1cnc2ccc(-c3cc(Cl)c(O)c(Cl)c3)cc2c1N[C@H]1CC[C@H](NC(=O)C(N)C(C)C)CC1 (stereo partly drawn) [Example 915] | – | 0.053 | 0.29 | 0.0031 | 3.5 | 0.099 | 0.062 | – |
| CC(=O)c1cnc2ccc(-c3ccc4nc[nH]c4c3)cc2c1Nc1cnn(C2CCN(C)CC2)c1 [Example 895, 1-(6-(1H-benzo[d]imidazol-6-yl)-4-((1-(1-methylpiperidin-4-yl)-1H-pyrazol-4-yl)amino)quinolin-3-yl)ethanone hydrochloride] | – | 0.94 | 4 | 0.065 | 9.3 | 2.2 | 9.1 | – |
| CN1CCC(n2cc(Nc3c(S(C)(=O)=O)cnc4ccc(-c5cc(F)c(O)c(Cl)c5)cc34)cn2)CC1 [Example 900, 2-chloro-6-fluoro-4-(4-((1-(1-methyl-piperidin-4-yl)-1H-pyrazol-4-yl)amino)-3-(methylsulfonyl)quinolin-6-yl)phenol hydrochloride] | – | 1.6 | 10 | 0.0032 | 10 | 3.1 | 0.54 | – |
| CC(=O)c1cnc2cc(F)c(-c3cc(Cl)c(O)c(Cl)c3)cc2c1N[C@H]1CC[C@H](CN(C)C)CC1 [Example 903, 1-(6-(3,5-dichloro-4-hydroxyphenyl)-4-((1R,4R)-4-((dimethylamino)methyl)cyclohexyl)amino)-7-fluoroquinolin-3-yl)ethanone hydrochloride] | – | 0.55 | 0.36 | 0.0017 | 1.5 | 0.27 | 0.16 | – |
| CC(=O)c1cnc2ccc(-c3cc(Cl)c(O)c(Cl)c3)cc2c1Nc1ccc(CN2CCCC2)cc1 [Example 416, 1-(6-(3,5-dichloro-4-hydroxyphenyl)-4-(4-(pyrrolidin-1-ylmethyl)phenylamino)quinolin-3-yl)ethanone hydrobromide] | 0.19 | – | – | – | – | – | – | IC50 (MELK; 50 micro-M ATP, FITC-labeled histone H3 peptide substrate, IMAP fluorescence polarization, hydrobromide): 0.0032 µM; IC50 (T47D cells; 72 hours, hydrobromide): 0.066 µM; IC50 (A549 cells; hydrobromide): 0.11 µM; IC50 (HT-1197 cells; HT1197 cells (negative control, no MELK expression), hydrobromide): 6.1 µM; IC50 (DU4475; DU4475 cells, hydrobromide): 0.053 µM |
| CC(=O)c1cnc2cc(F)c(-c3cc(F)c(O)c(Cl)c3)cc2c1N[C@H]1CC[C@H](CN(C)C)CC1 [Example 904, 1-(6-(3-chloro-5-fluoro-4-hydroxy-phenyl)-4-((1R,4R)-4-((dimethylamino)methyl)cyclohexyl)amino)-7-fluoro-quinolin-3-yl)ethanone hydrochloride] | – | 0.51 | 0.43 | 0.017 | 1.6 | 0.33 | 0.26 | – |
| CC(=O)c1cnc2ccc(-c3cc(Cl)c(O)c(Cl)c3)cc2c1N[C@H]1CC[C@H](NC(=O)CN(C)C)CC1 [Example 877, N-(1R,4R)-4-((3-acetyl-6-(3,5-dichloro-4-hydroxyphenyl)quinolin-4-yl)amino)cyclohexyl)-2-(dimethylamino)acetamide hydrochloride] | – | 0.11 | 0.2 | 0.0027 | 2 | 0.18 | 0.11 | – |
